According to the NIST ThermoML archive (doi:10.1016/j.tca.2014.11.028):
Numbers after ± are expanded uncertainties.

Key:
[1] = xn = mol fraction of the nth substance listed; settings: 101 kPa, Liquid, Vibrating tube method
[2] = 101 kPa, Liquid, Vibrating tube method

O=C(O)CC(=O)O [propanedioic acid] + C[N+](C)(C)CCO.[Cl-]
[1], x2 = 0.3333
Settings | mass density [kg/m3]
283.15 K | 1191.5 ± 1.1
293.15 K | 1185.1 ± 1.1
303.15 K | 1178.6 ± 1.1
313.15 K | 1172.3 ± 1.1
323.15 K | 1166 ± 1.1
333.15 K | 1160.3 ± 1.1
343.15 K | 1154 ± 1.1
353.15 K | 1146.6 ± 1.1
363.15 K | 1138.8 ± 1.1

C[N+](C)(C)CCO.[Cl-] [choline chloride] + OCCO
[1], x1 = 0.3333
Settings | mass density [kg/m3]
283.15 K | 1122.9 ± 1.1
293.15 K | 1117.1 ± 1.1
303.15 K | 1111.4 ± 1.1
313.15 K | 1105.7 ± 1.1
323.15 K | 1100.1 ± 1.1
333.15 K | 1094.7 ± 1.1
343.15 K | 1088.7 ± 1.1
353.15 K | 1081.9 ± 1.1
363.15 K | 1074.4 ± 1.1

O [water]
[2]
Settings | mass density [kg/m3]
283.15 K | 999.7 ± 1
323.15 K | 988 ± 1
333.15 K | 983.2 ± 1
343.15 K | 977.8 ± 1
353.15 K | 971.7 ± 1
363.15 K | 965 ± 1
